# In patent publication US8263406B2, “Enriched or purified population of motor neurons and its preparation from a population of embryonic stem cells” (Cornell Research Foundation, Inc., priority 2003, dated 2012):
# Tested on: hES cells
# Test: Induction of motor neurons from hES cell-derived embryoid bodies, quantified by immunocytochemistry
# Format: cell-based, human
# Settings: H1 hES-derived EBs, RA 10 uM
# Excerpt: A modified version of the protocol described in Wichterle et al., “Directed Differentiation of Embryonic Stem Cells into Motor Neurons,” Cell 110:385-397 (2002), which is hereby incorporated by reference in its entirety, was used for induction and differentiation of motor neurons from hES cells (FIG. 1A). For caudalization and specification to motor neurons, 90% confluent hES cell cultures were dissociated to form embryoid bodies (EB) in suspension dishes (Ultra low cluster 6 well plates, […], Mass.). Fresh RA was added every day and fresh medium along with SHH replaced every 72 hrs. After 6-8 days, differentiation of motor neurons was induced by plating the spheres formed onto poly-ornithin/fibronectin coated plates in DMEM/F12 supplemented with N2 (Gibco), GDNF (20 ng/ml), BDNF (20 ng/ml), or neurotrophin 4 (NT4) (20 ng/ml), CNTF (20 ng/ml), B27 (1X) and 2% FBS. After 7-14 days, cultures were either fixed for immunocytochemistry or used for physiology.
# Cells were stained at different stages of culture for the following: Tra 1-81 (Mouse IgG, 1:200), SSEA-4 (supernatant, mouse IgG, 1:50, DSHB), βIII-tubulin (mouse IgG; 1:400, Covance), Islet1 (supernatant, mouse IgG, 1:50, Developmental Studies Hybridoma Bank from the University of Iowa (DSHB)), Hb9 (supernatant, mouse IgG, 1:50, DSH), ChAT (Rabbit IgG, 1:200, Chemicon), desmin (Rabbit IgG, 1:200, Sigma), and GFP (mouse IgG, 1:100). […]
# To determine if hES cells had the capacity to respond to the caudalizing effects of RA and the ventralizing effects of SHH to generate MNs (Wichterle et al., “Directed Differentiation of Embryonic Stem Cells into Motor Neurons,” Cell 110:385-397 (2002), which is hereby incorporated by reference in its entirety), hES cells were raised to 90% confluency before inducing them to form EBs in suspension cultures. […] After a week in a differentiated condition, the cells were fixed and the percentage of βIII-tubulin expressing neurons was determined. […]
structure (smiles),measurement,setting,value
"CC1=C(/C=C/C(C)=C/C=C/C(C)=C/C(=O)O)C(C)(C)CCC1 [RA+/SHH−, all-trans retinoic acid]",percentage of neurons (βIII-tubulin expressing) generated from the differentiated EBs,"8-9 days in suspension, one week differentiation with FBS/B27/BDNF/GDNF/CNTF, of total population",around 30%
same,percentage of βIII-tubulin expressing neurons that expressed islet-1/ChAT,"SHH 200 nM where present, FIG. 2E",3%-10%
same,percentage of βIII-tubulin expressing neurons that expressed Hb9,"SHH 200 nM where present, FIG. 2F",3%-6%
